Test results published in the NIST ThermoML archive (doi:10.1021/je025610o).
Numbers after ± are expanded uncertainties.

What was measured:
[1] = 100 kPa, Liquid, Capillary tube (Ostwald / Ubbelohde) method
[2] = xn = mol fraction of the nth substance listed; details: 100 kPa, Liquid; for thermal conductivity: Hot wire method

For `OCCO` [1,2-ethanediol], the viscosity ([1]; 295.55 K) was 19.1 ± 0.4 mPa·s, the viscosity ([1]; 313.05 K) was 9.74 ± 0.2 mPa·s and the viscosity ([1]; 333.1 K) was 5.24 ± 0.11 mPa·s. It also gave a viscosity ([1]; 353.05 K) of 3.13 ± 0.07 mPa·s, a viscosity ([1]; 372.15 K) of 2.06 ± 0.04 mPa·s and a viscosity ([1]; 392.45 K) of 1.44 ± 0.03 mPa·s. The viscosity ([1]; 412.25 K) was 1.07 ± 0.02 mPa·s and the viscosity ([1]; 428.3 K) was 0.867 ± 0.018 mPa·s.
`OCCO` [1,2-ethanediol] + O gave a mass density ([2]; 296.4 K, x1 = 0.25) of 1068 ± 2 kg/m3, a viscosity ([2]; 296.45 K, x1 = 0.25) of 3.69 ± 0.11 mPa·s and a mass density ([2]; 297.05 K, x1 = 0.5) of 1094 ± 2 kg/m3. The viscosity ([2]; 297.05 K, x1 = 0.5) was 7.61 ± 0.21 mPa·s, the mass density ([2]; 297.35 K, x1 = 0.75) was 1106 ± 2 kg/m3 and the viscosity ([2]; 297.35 K, x1 = 0.75) was 12.3 ± 0.3 mPa·s. For the same compound, the thermal conductivity ([2]; 298.5 K, x1 = 0.75) was 0.269 ± 0.005 W/m/K, the thermal conductivity ([2]; 303.4 K, x1 = 0.25) was 0.391 ± 0.008 W/m/K and the thermal conductivity ([2]; 312.3 K, x1 = 0.5) was 0.316 ± 0.006 W/m/K. The mass density ([2]; 313.05 K, x1 = 0.25) was 1058 ± 2 kg/m3, the viscosity ([2]; 313.05 K, x1 = 0.25) was 2.29 ± 0.07 mPa·s and the mass density ([2]; 313.05 K, x1 = 0.5) was 1083 ± 2 kg/m3. For the same compound, the viscosity ([2]; 313.05 K, x1 = 0.5) was 4.49 ± 0.13 mPa·s, the mass density ([2]; 313.05 K, x1 = 0.75) was 1094 ± 2 kg/m3 and the viscosity ([2]; 313.05 K, x1 = 0.75) was 6.97 ± 0.19 mPa·s. For the same compound, the thermal conductivity ([2]; 323.6 K, x1 = 0.25) was 0.4 ± 0.008 W/m/K, the thermal conductivity ([2]; 324.2 K, x1 = 0.75) was 0.272 ± 0.006 W/m/K and the thermal conductivity ([2]; 324.4 K, x1 = 0.5) was 0.314 ± 0.006 W/m/K. The mass density ([2]; 333.05 K, x1 = 0.25) was 1045 ± 2 kg/m3, the viscosity ([2]; 333.05 K, x1 = 0.25) was 1.47 ± 0.04 mPa·s and the mass density ([2]; 333.1 K, x1 = 0.5) was 1069 ± 2 kg/m3. It also gave a viscosity ([2]; 333.1 K, x1 = 0.5) of 2.62 ± 0.08 mPa·s, a mass density ([2]; 333.1 K, x1 = 0.75) of 1080 ± 2 kg/m3 and a viscosity ([2]; 333.1 K, x1 = 0.75) of 3.88 ± 0.11 mPa·s. For the same compound, the thermal conductivity ([2]; 347.5 K, x1 = 0.75) was 0.277 ± 0.006 W/m/K, the thermal conductivity ([2]; 347.7 K, x1 = 0.5) was 0.324 ± 0.007 W/m/K and the thermal conductivity ([2]; 348.6 K, x1 = 0.25) was 0.416 ± 0.008 W/m/K. It also gave a mass density ([2]; 353.05 K, x1 = 0.25) of 1030 ± 2 kg/m3, a viscosity ([2]; 353.05 K, x1 = 0.25) of 0.99 ± 0.03 mPa·s and a mass density ([2]; 353.05 K, x1 = 0.5) of 1054 ± 2 kg/m3. It also gave a viscosity ([2]; 353.05 K, x1 = 0.5) of 1.7 ± 0.05 mPa·s, a mass density ([2]; 353.05 K, x1 = 0.75) of 1065 ± 2 kg/m3 and a viscosity ([2]; 353.05 K, x1 = 0.75) of 2.42 ± 0.07 mPa·s. The thermal conductivity ([2]; 371.9 K, x1 = 0.75) was 0.281 ± 0.006 W/m/K, the thermal conductivity ([2]; 372 K, x1 = 0.25) was 0.423 ± 0.009 W/m/K and the thermal conductivity ([2]; 372.8 K, x1 = 0.5) was 0.33 ± 0.007 W/m/K. The mass density ([2]; 373.45 K, x1 = 0.75) was 1049 ± 2 kg/m3, the viscosity ([2]; 373.45 K, x1 = 0.75) was 1.62 ± 0.05 mPa·s and the mass density ([2]; 374.85 K, x1 = 0.25) was 1013 ± 2 kg/m3. It also gave a mass density ([2]; 376.05 K, x1 = 0.5) of 1035 ± 2 kg/m3, a viscosity ([2]; 378.85 K, x1 = 0.25) of 0.689 ± 0.021 mPa·s and a viscosity ([2]; 380.05 K, x1 = 0.5) of 1.07 ± 0.03 mPa·s. It also gave a mass density ([2]; 383.35 K, x1 = 0.75) of 1041 ± 2 kg/m3, a viscosity ([2]; 383.35 K, x1 = 0.75) of 1.37 ± 0.04 mPa·s and a mass density ([2]; 390.25 K, x1 = 0.5) of 1023 ± 2 kg/m3. The mass density ([2]; 393.2 K, x1 = 0.75) was 1033 ± 2 kg/m3, the viscosity ([2]; 393.2 K, x1 = 0.75) was 1.18 ± 0.04 mPa·s and the viscosity ([2]; 394.25 K, x1 = 0.5) was 0.87 ± 0.03 mPa·s. The thermal conductivity ([2]; 395.9 K, x1 = 0.25) was 0.428 ± 0.009 W/m/K, the thermal conductivity ([2]; 396.8 K, x1 = 0.75) was 0.28 ± 0.006 W/m/K and the mass density ([2]; 396.95 K, x1 = 0.25) was 995.5 ± 2.2 kg/m3. It also gave a thermal conductivity ([2]; 397 K, x1 = 0.5) of 0.332 ± 0.007 W/m/K, a viscosity ([2]; 400.95 K, x1 = 0.25) of 0.518 ± 0.017 mPa·s and a mass density ([2]; 403.15 K, x1 = 0.75) of 1025 ± 2 kg/m3. The viscosity ([2]; 403.15 K, x1 = 0.75) was 1.02 ± 0.03 mPa·s, the mass density ([2]; 404.75 K, x1 = 0.75) was 1023 ± 2 kg/m3 and the mass density ([2]; 406.05 K, x1 = 0.5) was 1010 ± 2 kg/m3. It also gave a viscosity ([2]; 407.75 K, x1 = 0.75) of 0.978 ± 0.03 mPa·s, a viscosity ([2]; 410.05 K, x1 = 0.5) of 0.706 ± 0.022 mPa·s and a mass density ([2]; 413.15 K, x1 = 0.75) of 1016 ± 2 kg/m3. The viscosity ([2]; 413.15 K, x1 = 0.75) was 0.903 ± 0.027 mPa·s, the mass density ([2]; 417.15 K, x1 = 0.25) was 977.4 ± 2.2 kg/m3 and the mass density ([2]; 418.35 K, x1 = 0.75) was 1012 ± 2 kg/m3. For the same compound, the thermal conductivity ([2]; 419.9 K, x1 = 0.75) was 0.279 ± 0.006 W/m/K, the thermal conductivity ([2]; 421 K, x1 = 0.25) was 0.432 ± 0.009 W/m/K and the viscosity ([2]; 421.15 K, x1 = 0.25) was 0.418 ± 0.014 mPa·s. It also gave a thermal conductivity ([2]; 421.7 K, x1 = 0.5) of 0.32 ± 0.007 W/m/K, a viscosity ([2]; 422.35 K, x1 = 0.75) of 0.806 ± 0.025 mPa·s and a mass density ([2]; 423.55 K, x1 = 0.5) of 994.5 ± 2.2 kg/m3. For the same compound, the viscosity ([2]; 427.55 K, x1 = 0.5) was 0.573 ± 0.018 mPa·s, the mass density ([2]; 431.55 K, x1 = 0.25) was 964.9 ± 2.2 kg/m3 and the mass density ([2]; 431.95 K, x1 = 0.75) was 1000 ± 2 kg/m3. For the same compound, the viscosity ([2]; 435.55 K, x1 = 0.25) was 0.366 ± 0.012 mPa·s, the viscosity ([2]; 435.95 K, x1 = 0.75) was 0.691 ± 0.022 mPa·s and the mass density ([2]; 436.65 K, x1 = 0.5) was 982.5 ± 2.2 kg/m3. It also gave a viscosity ([2]; 440.65 K, x1 = 0.5) of 0.5 ± 0.02 mPa·s, a thermal conductivity ([2]; 441.6 K, x1 = 0.75) of 0.276 ± 0.006 W/m/K and a mass density ([2]; 445.85 K, x1 = 0.75) of 987 ± 2 kg/m3. It also gave a viscosity ([2]; 449.85 K, x1 = 0.75) of 0.594 ± 0.019 mPa·s.
With `OCCOCCO` [diethylene glycol] the viscosity ([1]; 294.2 K) was 35.1 ± 0.7 mPa·s, the viscosity ([1]; 313.05 K) was 15.1 ± 0.3 mPa·s and the viscosity ([1]; 333.05 K) was 7.64 ± 0.16 mPa·s. The viscosity ([1]; 353.05 K) was 4.41 ± 0.09 mPa·s, the viscosity ([1]; 373.6 K) was 2.76 ± 0.06 mPa·s and the viscosity ([1]; 393.4 K) was 1.92 ± 0.04 mPa·s. It also gave a viscosity ([1]; 413.25 K) of 1.41 ± 0.03 mPa·s and a viscosity ([1]; 428.15 K) of 1.15 ± 0.03 mPa·s.
